How the values were obtained:
[1] = target: Homeodomain-interacting protein kinase 1 (Homo sapiens) (UniProt Q86Z02); details: Compound concentration 1000.0 nM
[2] = target: Beta-2 adrenergic receptor (Homo sapiens) (UniProt P07550); details: Compound concentration 10.0 uM
[3] = target: Serine/threonine-protein kinase Chk2 (Homo sapiens) (UniProt O96017); details: Compound concentration 1000.0 nM
[4] = target: Testis-specific serine/threonine-protein kinase 1 (Homo sapiens) (UniProt Q9BXA7); details: Compound concentration 1000.0 nM
[5] = target: GABA-A receptor; anion channel (Rattus norvegicus) (UniProt O09028+P15431+P18506+P18508+P19969+P20236+P23574+P23576+P28471+P28473+P30191+P62813+P63079+P63138+Q91ZM7+Q9ES14); details: Compound concentration 10.0 uM
[6] = system: Phosphatidylinositol 4,5-bisphosphate 3-kinase catalytic subunit alpha isoform (Homo sapiens), P42336 [E545A]; details: Compound concentration 1000.0 nM
[7] = target: Serine/threonine-protein kinase VRK2 (Homo sapiens) (UniProt Q86Y07); details: Compound concentration 1000.0 nM
[8] = system: Tyrosine-protein kinase ABL1 (Homo sapiens), P00519 [H396P]; details: Compound concentration 1000.0 nM
[9] = target: Casein kinase I isoform gamma-1 (Homo sapiens) (UniProt Q9HCP0); details: Compound concentration 1000.0 nM
[10] = system: Tyrosine-protein kinase ABL1 (Homo sapiens), P00519 [Y253F]; details: Compound concentration 1000.0 nM
[11] = target: Mitogen-activated protein kinase kinase kinase 19 (Homo sapiens) (UniProt Q56UN5); details: Compound concentration 1000.0 nM
[12] = target: Tyrosine-protein kinase receptor Tie-1 (Homo sapiens) (UniProt P35590); details: Compound concentration 1000.0 nM
[13] = target: Tyrosine-protein kinase Yes (Homo sapiens) (UniProt P07947); details: Compound concentration 1000.0 nM
[14] = target: Ribosomal protein S6 kinase alpha-2 (Homo sapiens) (UniProt Q15349); details: Compound concentration 1000.0 nM
[15] = target: SRSF protein kinase 2 (Homo sapiens) (UniProt P78362); details: Compound concentration 1000.0 nM
[16] = target: Ribosomal protein S6 kinase alpha-6 (Homo sapiens) (UniProt Q9UK32); details: Compound concentration 1000.0 nM
[17] = target: 5-hydroxytryptamine receptor 5A (Homo sapiens) (UniProt P47898); details: Compound concentration 10.0 uM
[18] = target: 5-hydroxytryptamine receptor 1D (Homo sapiens) (UniProt P28221); details: Compound concentration 10.0 uM
[19] = target: Serine/threonine-protein kinase 17A (Homo sapiens) (UniProt Q9UEE5); details: Compound concentration 1000.0 nM
[20] = target: Casein kinase II subunit alpha' (Homo sapiens) (UniProt P19784); details: Compound concentration 1000.0 nM
[21] = target: Mitogen-activated protein kinase kinase kinase kinase 1 (Homo sapiens) (UniProt Q92918); details: Compound concentration 1000.0 nM
[22] = target: Serine/threonine-protein kinase N2 (Homo sapiens) (UniProt Q16513); details: Compound concentration 1000.0 nM
[23] = target: Serine/threonine-protein kinase ULK3 (Homo sapiens) (UniProt Q6PHR2); details: Compound concentration 1000.0 nM
[24] = target: Serine/threonine-protein kinase SIK3 (Homo sapiens) (UniProt Q9Y2K2); details: Compound concentration 1000.0 nM
[25] = system: Phosphatidylinositol 4,5-bisphosphate 3-kinase catalytic subunit alpha isoform (Homo sapiens), P42336 [E542K]; details: Compound concentration 1000.0 nM
[26] = target: Serine/threonine-protein kinase D2 (Homo sapiens) (UniProt Q9BZL6); details: Compound concentration 1000.0 nM
[27] = target: Rho-associated protein kinase 2 (Homo sapiens) (UniProt O75116); details: Compound concentration 1000.0 nM
[28] = target: Mitogen-activated protein kinase kinase kinase 11 (Homo sapiens) (UniProt Q16584); details: Compound concentration 1000.0 nM
[29] = target: Insulin-like growth factor 1 receptor (Homo sapiens) (UniProt P08069); details: Compound concentration 1000.0 nM
[30] = target: Kappa-type opioid receptor (Homo sapiens, UniProt P41145); experiment: kappa-Opioid receptor (h) CEREP ligand profiling; details: Compound concentration 10.0 uM
[31] = target: Calcium-activated potassium channel (Homo sapiens) (UniProt Q92952+Q9UGI6+Q12791+O15554+Q9H2S1+A8MYU2); experiment: K+ channel (Ca2+-dependent) CEREP ligand profiling; format: protein assay; details: Compound concentration 10.0 uM
[32] = target: T1, 5-hydroxytryptamine receptor 3A (Homo sapiens) (UniProt P46098); experiment: 5-Hydroxytryptamine3 CEREP ligand profiling; details: Compound concentration 10.0 uM
T1 sequence (whole entry): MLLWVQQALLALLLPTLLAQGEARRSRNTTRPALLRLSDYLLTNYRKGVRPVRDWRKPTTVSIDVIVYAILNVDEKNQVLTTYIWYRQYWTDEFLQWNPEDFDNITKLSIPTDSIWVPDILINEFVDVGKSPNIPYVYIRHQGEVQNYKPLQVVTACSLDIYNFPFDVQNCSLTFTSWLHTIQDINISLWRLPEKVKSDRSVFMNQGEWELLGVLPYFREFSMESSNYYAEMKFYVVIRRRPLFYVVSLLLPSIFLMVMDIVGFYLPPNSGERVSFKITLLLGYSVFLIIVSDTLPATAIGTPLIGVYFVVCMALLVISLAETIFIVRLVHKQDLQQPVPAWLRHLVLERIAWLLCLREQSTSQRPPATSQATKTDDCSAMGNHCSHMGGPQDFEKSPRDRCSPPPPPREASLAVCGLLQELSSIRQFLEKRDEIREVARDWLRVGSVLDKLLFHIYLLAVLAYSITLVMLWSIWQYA

[33] = target: Type-1 angiotensin II receptor (Homo sapiens) (UniProt P30556); experiment: Angiotensin AT1 receptor (h) CEREP ligand profiling; details: Compound concentration 10.0 uM
[34] = target: Muscarinic acetylcholine receptor M4 (Homo sapiens) (UniProt P08173); experiment: Muscarinic M4 receptors (h) CEREP ligand profiling; details: Compound concentration 10.0 uM
[35] = target: Translocator protein (Rattus norvegicus) (UniProt P16257); experiment: Benzodiazepine (peripheral) CEREP ligand profiling; details: Compound concentration 10.0 uM
Histamine H1 receptor = Histamine H1 receptor (Homo sapiens, UniProt P35367); experiment: Histamine H1 receptor (central) CEREP ligand profiling; details: Compound concentration 10.0 uM
[36] = target: Bombesin receptor (Homo sapiens) (UniProt P28336+P32247+P30550); experiment: Bombesin receptor CEREP ligand profiling; format: protein assay; details: Compound concentration 10.0 uM

Sequence of Serine/threonine-protein kinase SIK3 (Homo sapiens) (Q9Y2K2 whole entry, looked up, canonical isoform): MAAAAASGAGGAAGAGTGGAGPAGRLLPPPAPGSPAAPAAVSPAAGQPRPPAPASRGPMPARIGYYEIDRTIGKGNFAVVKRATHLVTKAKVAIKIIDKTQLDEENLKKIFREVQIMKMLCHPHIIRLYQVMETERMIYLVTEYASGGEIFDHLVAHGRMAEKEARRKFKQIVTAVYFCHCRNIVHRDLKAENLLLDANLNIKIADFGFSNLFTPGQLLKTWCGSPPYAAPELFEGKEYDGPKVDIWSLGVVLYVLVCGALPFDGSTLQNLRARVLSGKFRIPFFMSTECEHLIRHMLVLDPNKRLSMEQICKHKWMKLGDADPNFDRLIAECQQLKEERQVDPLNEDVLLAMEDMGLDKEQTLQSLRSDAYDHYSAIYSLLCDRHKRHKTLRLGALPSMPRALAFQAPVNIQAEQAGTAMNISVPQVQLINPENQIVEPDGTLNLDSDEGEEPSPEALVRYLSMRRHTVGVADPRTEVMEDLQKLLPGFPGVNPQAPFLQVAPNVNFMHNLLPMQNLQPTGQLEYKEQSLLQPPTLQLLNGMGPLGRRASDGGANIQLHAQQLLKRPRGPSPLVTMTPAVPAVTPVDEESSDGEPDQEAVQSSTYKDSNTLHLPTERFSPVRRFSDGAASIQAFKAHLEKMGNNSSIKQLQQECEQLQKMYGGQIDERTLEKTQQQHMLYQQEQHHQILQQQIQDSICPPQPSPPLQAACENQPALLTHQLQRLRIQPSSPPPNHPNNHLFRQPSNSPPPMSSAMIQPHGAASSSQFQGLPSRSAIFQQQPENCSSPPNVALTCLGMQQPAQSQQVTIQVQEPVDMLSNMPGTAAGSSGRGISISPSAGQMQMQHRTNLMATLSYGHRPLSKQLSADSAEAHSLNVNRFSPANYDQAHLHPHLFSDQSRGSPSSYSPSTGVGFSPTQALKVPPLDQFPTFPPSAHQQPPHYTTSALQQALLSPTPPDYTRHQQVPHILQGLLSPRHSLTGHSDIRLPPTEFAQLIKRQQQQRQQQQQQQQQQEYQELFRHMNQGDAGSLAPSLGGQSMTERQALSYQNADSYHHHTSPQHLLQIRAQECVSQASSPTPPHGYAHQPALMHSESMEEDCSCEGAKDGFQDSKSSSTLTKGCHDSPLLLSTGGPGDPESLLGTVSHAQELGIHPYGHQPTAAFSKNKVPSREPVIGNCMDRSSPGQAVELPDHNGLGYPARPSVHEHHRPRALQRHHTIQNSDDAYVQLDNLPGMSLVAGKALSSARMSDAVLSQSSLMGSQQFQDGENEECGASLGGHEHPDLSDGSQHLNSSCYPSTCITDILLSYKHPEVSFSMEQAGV
Sequence of Casein kinase II subunit alpha' (Homo sapiens) (P19784 whole entry, looked up): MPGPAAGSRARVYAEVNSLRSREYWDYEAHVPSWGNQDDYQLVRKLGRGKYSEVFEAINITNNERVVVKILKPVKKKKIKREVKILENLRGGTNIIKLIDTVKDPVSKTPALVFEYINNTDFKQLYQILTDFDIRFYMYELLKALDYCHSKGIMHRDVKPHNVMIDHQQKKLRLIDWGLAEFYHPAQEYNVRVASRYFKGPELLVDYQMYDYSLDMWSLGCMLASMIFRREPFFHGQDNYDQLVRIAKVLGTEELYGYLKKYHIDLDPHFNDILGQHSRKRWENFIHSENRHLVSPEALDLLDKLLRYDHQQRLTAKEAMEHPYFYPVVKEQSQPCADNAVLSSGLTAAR
Sequence of Ribosomal protein S6 kinase alpha-6 (Homo sapiens) (Q9UK32 whole entry): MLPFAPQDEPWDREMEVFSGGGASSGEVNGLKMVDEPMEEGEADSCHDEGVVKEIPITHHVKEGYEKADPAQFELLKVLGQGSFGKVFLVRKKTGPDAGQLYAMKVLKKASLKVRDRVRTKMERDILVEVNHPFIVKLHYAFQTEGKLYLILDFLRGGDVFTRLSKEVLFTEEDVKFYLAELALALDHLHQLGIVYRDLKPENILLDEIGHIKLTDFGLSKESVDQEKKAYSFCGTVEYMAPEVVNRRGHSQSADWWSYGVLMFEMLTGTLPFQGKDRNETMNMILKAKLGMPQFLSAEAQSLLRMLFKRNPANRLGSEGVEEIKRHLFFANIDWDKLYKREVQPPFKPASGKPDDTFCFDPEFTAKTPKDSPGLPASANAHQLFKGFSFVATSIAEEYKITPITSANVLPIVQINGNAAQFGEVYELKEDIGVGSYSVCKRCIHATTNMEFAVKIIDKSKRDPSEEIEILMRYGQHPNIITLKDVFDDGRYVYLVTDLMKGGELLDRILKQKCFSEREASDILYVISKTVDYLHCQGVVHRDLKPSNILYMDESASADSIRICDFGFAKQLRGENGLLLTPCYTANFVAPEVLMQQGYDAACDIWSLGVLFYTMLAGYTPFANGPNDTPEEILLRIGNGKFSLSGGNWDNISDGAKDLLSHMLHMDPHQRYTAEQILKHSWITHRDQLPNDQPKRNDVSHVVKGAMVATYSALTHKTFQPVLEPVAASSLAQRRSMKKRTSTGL
Sequence of Tyrosine-protein kinase Yes (Homo sapiens) (P07947 2-543 limits assumed): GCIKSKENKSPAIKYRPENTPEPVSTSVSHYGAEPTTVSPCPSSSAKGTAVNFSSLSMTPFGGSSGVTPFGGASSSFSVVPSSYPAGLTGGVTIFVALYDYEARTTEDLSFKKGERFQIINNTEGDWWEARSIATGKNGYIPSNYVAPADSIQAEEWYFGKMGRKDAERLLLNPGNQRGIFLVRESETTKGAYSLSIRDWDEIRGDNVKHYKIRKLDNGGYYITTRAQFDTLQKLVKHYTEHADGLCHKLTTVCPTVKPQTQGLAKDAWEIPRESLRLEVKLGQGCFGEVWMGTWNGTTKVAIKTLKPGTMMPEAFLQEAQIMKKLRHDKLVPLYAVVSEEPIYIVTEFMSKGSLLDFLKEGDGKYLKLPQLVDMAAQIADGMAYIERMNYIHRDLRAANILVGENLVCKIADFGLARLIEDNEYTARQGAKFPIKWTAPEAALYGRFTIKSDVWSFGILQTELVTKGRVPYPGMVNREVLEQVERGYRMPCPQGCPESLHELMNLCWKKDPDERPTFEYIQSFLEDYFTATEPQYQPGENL
Sequence of Mitogen-activated protein kinase kinase kinase 19 (Homo sapiens) (Q56UN5 whole entry): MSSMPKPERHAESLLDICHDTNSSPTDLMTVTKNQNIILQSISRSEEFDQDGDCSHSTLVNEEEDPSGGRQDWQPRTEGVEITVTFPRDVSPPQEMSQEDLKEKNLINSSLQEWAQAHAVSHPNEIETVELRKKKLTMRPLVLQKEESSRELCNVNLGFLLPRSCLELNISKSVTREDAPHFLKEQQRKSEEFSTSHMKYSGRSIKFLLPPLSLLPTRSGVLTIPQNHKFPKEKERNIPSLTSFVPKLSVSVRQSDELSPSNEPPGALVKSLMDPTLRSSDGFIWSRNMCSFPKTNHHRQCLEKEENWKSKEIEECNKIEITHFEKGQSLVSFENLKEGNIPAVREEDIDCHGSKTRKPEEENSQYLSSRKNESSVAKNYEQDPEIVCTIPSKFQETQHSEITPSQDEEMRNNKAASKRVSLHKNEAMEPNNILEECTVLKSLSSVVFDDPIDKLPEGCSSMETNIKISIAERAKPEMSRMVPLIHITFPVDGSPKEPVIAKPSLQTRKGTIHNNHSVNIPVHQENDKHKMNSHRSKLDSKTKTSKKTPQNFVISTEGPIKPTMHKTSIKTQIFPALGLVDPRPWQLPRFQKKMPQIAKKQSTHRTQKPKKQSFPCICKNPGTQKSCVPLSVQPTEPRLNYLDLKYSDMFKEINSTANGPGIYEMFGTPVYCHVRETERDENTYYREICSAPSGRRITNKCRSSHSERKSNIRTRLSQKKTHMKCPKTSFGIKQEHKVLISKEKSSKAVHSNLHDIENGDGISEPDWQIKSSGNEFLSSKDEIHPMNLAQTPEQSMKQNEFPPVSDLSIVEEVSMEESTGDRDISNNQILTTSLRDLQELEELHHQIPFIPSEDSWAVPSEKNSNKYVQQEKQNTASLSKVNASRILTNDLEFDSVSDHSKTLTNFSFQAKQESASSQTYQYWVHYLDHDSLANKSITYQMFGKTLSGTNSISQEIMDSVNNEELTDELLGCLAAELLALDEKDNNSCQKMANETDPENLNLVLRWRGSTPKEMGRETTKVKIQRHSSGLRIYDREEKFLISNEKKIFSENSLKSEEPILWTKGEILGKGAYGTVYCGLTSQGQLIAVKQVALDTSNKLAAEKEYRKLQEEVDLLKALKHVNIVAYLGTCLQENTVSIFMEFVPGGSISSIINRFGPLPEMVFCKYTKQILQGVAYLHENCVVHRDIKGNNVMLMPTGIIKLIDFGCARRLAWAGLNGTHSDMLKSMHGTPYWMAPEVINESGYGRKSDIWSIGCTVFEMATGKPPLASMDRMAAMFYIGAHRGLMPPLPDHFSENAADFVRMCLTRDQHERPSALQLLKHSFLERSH
Sequence of Casein kinase I isoform gamma-1 (Homo sapiens) (Q9HCP0 whole entry, looked up, canonical isoform): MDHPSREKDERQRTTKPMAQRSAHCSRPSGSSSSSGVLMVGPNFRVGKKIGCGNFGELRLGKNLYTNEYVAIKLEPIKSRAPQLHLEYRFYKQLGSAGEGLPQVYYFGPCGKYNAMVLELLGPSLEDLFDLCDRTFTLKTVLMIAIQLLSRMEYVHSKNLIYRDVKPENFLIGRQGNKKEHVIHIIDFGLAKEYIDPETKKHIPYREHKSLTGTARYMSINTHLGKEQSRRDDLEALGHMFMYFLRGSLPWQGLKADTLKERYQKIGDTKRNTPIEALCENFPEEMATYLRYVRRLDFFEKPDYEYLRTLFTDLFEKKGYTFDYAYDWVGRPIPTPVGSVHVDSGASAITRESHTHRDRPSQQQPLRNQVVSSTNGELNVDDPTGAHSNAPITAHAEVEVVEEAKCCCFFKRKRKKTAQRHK
Sequence of Testis-specific serine/threonine-protein kinase 1 (Homo sapiens) (Q9BXA7 whole entry): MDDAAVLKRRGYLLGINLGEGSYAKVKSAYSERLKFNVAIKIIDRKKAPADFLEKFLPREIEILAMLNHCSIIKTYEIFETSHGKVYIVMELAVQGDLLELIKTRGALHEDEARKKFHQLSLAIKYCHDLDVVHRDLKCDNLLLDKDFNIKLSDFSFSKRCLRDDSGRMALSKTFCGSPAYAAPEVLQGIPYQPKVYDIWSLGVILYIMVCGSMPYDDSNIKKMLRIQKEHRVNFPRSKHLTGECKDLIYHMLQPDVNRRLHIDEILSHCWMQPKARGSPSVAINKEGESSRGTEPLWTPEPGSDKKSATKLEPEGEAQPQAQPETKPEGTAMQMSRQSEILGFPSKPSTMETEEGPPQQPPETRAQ

CCCCN(CCCC)C(=O)CN1C[C@@H](c2cc(OC)c3c(c2)OCO3)[C@H](C(=O)O)[C@H]1CC(C)(C)CCC [A-545]
inactive: residual activity [1] 77.3% | inhibition [2] -6.31% | residual activity [3] 87.8% | residual activity [4] 100% | inhibition [5] 8.52% | residual activity [6] 77.9% | residual activity [7] 95.4% | residual activity [8] 89.4% | residual activity [9] 100% | residual activity [10] 100% | residual activity [11] 100% | residual activity [12] 94.7% | residual activity [13] 95.3% | residual activity [14] 90.2% | residual activity [15] 100% | residual activity [16] 79.2% | inhibition [17] 43.5% | inhibition [18] -3.72% | residual activity [19] 100% | residual activity [20] 77.1% | residual activity [21] 99.6% | residual activity [22] 100% | residual activity [23] 90.7% | residual activity [24] 74.8% | residual activity [25] 100% | residual activity [26] 90.6% | residual activity [27] 100% | residual activity [28] 100% | residual activity [29] 97%

CCCCN(CCCC)C(=O)CN1C[C@H](c2cc(OC)c3c(c2)OCO3)[C@@H](C(=O)O)[C@@H]1CC(C)(C)CCC [ABT-546]
inactive: inhibition [30] 28% | residual activity [1] 100% | inhibition [31] < 10% | inhibition [32] < 10% | residual activity [3] 100% | inhibition [33] < 10% | residual activity [4] 100% | inhibition [5] 19.7% | residual activity [6] 89.8% | residual activity [7] 72.8% | residual activity [8] 96.3% | residual activity [9] 100% | inhibition [34] < 10% | residual activity [10] 86.7% | residual activity [11] 90.3% | residual activity [12] 100% | residual activity [13] 100% | residual activity [14] 100% | residual activity [15] 100% | residual activity [16] 100% | inhibition [17] -5.07% | residual activity [19] 100% | residual activity [20] 98.4% | residual activity [21] 90.6% | residual activity [22] 100% | residual activity [23] 86.7% | residual activity [24] 60.5% | residual activity [25] 57.4% | residual activity [26] 100% | residual activity [27] 85.2% | residual activity [28] 100% | inhibition [35] < 10% | residual activity [29] 100% | inhibition (Histamine H1 receptor) < 10% | inhibition [36] < 10%
